# According to US6258806A, “Amine derivatives of oxo- and hydroxy- substituted hydrocarbons” (Narhex Limited, priority 1992, dated 2001):
# Experiments:
# HIV-1 protease = HIV-1 protease (Human immunodeficiency virus type 1 group M subtype B, UniProt P04585); experiment: HIV-1 protease-inhibiting activity; type: biochemical; settings: half-maximal inhibition of HIV-1 protease
# Excerpt: The HIV protease-inhibiting activity of representative compounds of the present invention has been tested by known methods (Brinkworth, R. I., et al., Biochem. Biophys. Res. Commun. 176, 241, (1991); McLeod, D. A., et al., Bioorganic & Medicinal Chemistry Letters (1991) 653-658).
# [1] = system: Human Immunodeficiency Virus type 1 (HIV) strain #237228 in MT2 cells; experiment: Anti-HIV-1 antiviral activity in acutely infected MT2 cells (CPE and RT activity); type: cell-based; settings: for IC100: Human immunodeficiency virus 1, 144 h, acute HIV-1 infection, day 6, concentration at which virus replication is inhibited (CPE negative or ±, >95% inhibition of RT activity); for antiviral index (Al), MT2 cells: only non-toxic concentrations used, 8640 min
# Excerpt: (§1) The antiviral activity of representative compounds of the present invention has been determined at the Antivirals Laboratory, Fairfield Hospital, Fairfield, Victoria, Australia. In this test a stock solution of each compound was made in DMSO, then diluted in culture medium (RF 10) to 2× the final concentration required for test. The final concentration of DMSO was 1% or below. Approximately 250,000 continuous lymphocytes of human origin (MT2 cells) or 750,000 human peripheral blood lymphocytes (PBLs) were exposed to dilutions of each test compound, then immediately infected with Human Immunodeficiency Virus type 1 (HIV) strain #237228 (a clinical isolate obtained from a human source). The infectivity titers were expressed as tissue culture 50% infective dose (TCID50 per ml) with 1 TCID50 corresponding to the amount of supernatant required to infect 50% of the replicate cell cultures. The 250 and 200 TCID50 were used for MT2 and PBL cells respectively. The cell/drug/virus mixture was then incubated at 37° C./CO2 in a 24-well microtitre plate. Fresh amounts of the appropriate dilution of each drug were added to both MT2 and PBL cultures at day 3. At day 6, the extent of HIV-specific cytopathic effects (CPE) associated with each concentration of test compound in each of the cultures was rated according to the following scale:
# (§2) 4+: 75-100% of cells showing 3+: good CPE
# (§3) 3+: 50-75% of cells showing 2+: moderate CPE
# (§4) 2+: 25-50% of cells showing 1+: low CPE
# (§5) 1+: 5-25% of cells showing trace: minimal CPE
# (§6) +/-: less than 5% CPE Negative: no CPE
# (§7) The activity of the compounds at each concentration was also assessed by their ability to inhibit viron-associated reverse transcriptase (RT) activity in the culture supernates. At the time of rating of CPE, supernatant fluids from each well were removed and RT activity measured using a standard assay. CPE ratings of negative, ± (in MT2 cells) or trace (in PBLs), with greater than 95% inhibition of RT activity, was considered to represent IC100 (the concentration of compound at which the virus replication is inhibited). Control cultures included in each test were:
# (§8) (a) HIV-infected cells in the absence of test compound.
# (§9) (b) Uninfected cells in the absence of tested compound.
# (§10) (c) Cell toxicity control consisting of uninfected cells treated with dilutions of test compound.
# (§11) At the conclusion of each experiment, viable cells in these cultures, as determined by tryptan blue exclusion, were compared with the counts obtained in (b), above.
# [2] = system: Human Immunodeficiency Virus type 1 (HIV) strain #237228 in human peripheral blood lymphocytes (PBLs); experiment: Anti-HIV-1 antiviral activity in acutely infected peripheral blood lymphocytes (CPE and RT activity); type: cell-based, Human Immunodeficiency Virus type 1 (HIV); human cells; settings: for IC100: Human immunodeficiency virus 1, 144 h, PBL cells, acute HIV-1 infection, day 6, concentration at which virus replication is inhibited (CPE negative or trace, >95% inhibition of RT activity); for antiviral index (Al), PBL cells: only non-toxic concentrations used, 8640 min
# Excerpt: as §1, §2, §3, §4, §5, §6, §7, §8, §9, §10, §11
# MT2 cells and PBLs = experiment: Toxicity to the cells (viable cells, trypan blue exclusion); type: cell-based, human; settings: compared to AZT (azidothymidine), in words
# Excerpt: as §10, §11
Structure (SMILES),IC50 (HIV-1 protease),IC100 [1],"antiviral index (Al), MT2 cells [1]",IC100 [2],"antiviral index (Al), PBL cells [2]",toxicity to the cells compared to AZT (MT2 cells and PBLs)
"CC(C)N(C[C@@H](O)[C@H](Cc1ccccc1)NC(=O)[C@H](CC(N)=O)NC(=O)c1ccc2ccccc2n1)NC(=O)OC(C)(C)C [Compound 7A, t-Butyl 3-Isopropyl-3-[(2R,3S)-2-hydroxy-3-(N-quinaldyl-L-asparaginyl)amino-4-phenylbutyl]carbazate]",7.3 ± 0.7 nM,1 µM,50,1 µM,25,
"CC(C)(C)OC(=O)NN(C[C@H](O)[C@H](Cc1ccccc1)NC(=O)[C@H](CC(N)=O)NC(=O)c1ccc2ccccc2n1)C1CCCCC1 [Compound 17, t-Butyl 3-cyclohexyl-3-[(2S,3S)-2-hydroxy-3-(N-quinaldyl-L-asparaginyl)amino-4-phenylbutyl]carbazate]",,0.1 µM,100,0.1 µM,200,lower toxicity to the cells
"CC(C)N(C[C@@H](O)[C@H](Cc1ccccc1)NC(=O)[C@H](CC(N)=O)NC(=O)c1ccc2ccccc2n1)NC(=O)c1ccccc1NC(=O)OCc1ccccn1 [Compound 8, 1-(2-Pyridyl)methoxycarbonylanthranilyl-2-[(2R,3S)-2-hydroxy-3-(N-quinaldoyl-L-asparaginyl)amino4-phenylbutyl]-2-isopropyl-hydrazine]",,0.1 µM,> 100,0.1 µM,> 100,lower toxicity to the cells
"CC(C)(C)OC(=O)N1CC2CCCCC2CN1CC(O)[C@H](Cc1ccccc1)NC(=O)[C@H](CC(N)=O)NC(=O)c1ccc2ccccc2n1 (stereo partly drawn) [Compound 2a, cis-1,6-3-t-Butoxycarbonyl-4-[(2RS,3S)-2-hydroxy-3-(N-quinaldyl-L-asparaginyl)amino-4-phenylbutyl]-3,4daza-bicylo[4.4.0]decane]",5.4 ± 0.54 nM,0.1 µM,50,0.1 µM,100,
"CC(C)N(C[C@H](O)[C@H](Cc1ccccc1)NC(=O)[C@H](CC(N)=O)NC(=O)c1ccc2ccccc2n1)NC(=O)OC(C)(C)C [Compound 7B, t-Butyl 3-isogrooyl-3-[(2S, 3S)-2-hydroxy-3-(N-quinaldyl-L-asparaginyl)amino-4-phenylbutyl]carbazate]",< 3.5 nM,0.1 µM,200,0.1 µM,> 200,lower toxicity to the cells
